For this experiment, the system named is Nanjungud rasbale banana. In words: Ripening of banana: NO donors versus hypoxia-induced NO. Format: in vivo. To be noted: SNAP 100 μM, chitosan 1%. The method, then:
Effects of using hypoxia-induced NO on fruit ripening were tested against the available NO donors such as SNP (Sodium nitroprusside), SNAP (S-Nitroso-N-acetyl-dl-penicillamine), chitosan on Nanjungud rasbale banana. Physiological concentrations of NO donors were used and the concentration for SNP used was 1 mM, SNAP was used in a concentration of 100 μM, chitosan was used in a concentration of 1%. Out of all the treatments, hypoxia-induced NO yielded better results where a significant delay of ripening was observed (Table-1). SNP and chitosan were effective up to 2 days but later they were ineffective on delaying ripening. Even after 3 days of treatment only one fruit ripened in the presence of formula in comparison to other treatments where 60% of fruits were ripened (FIG. 10). […] It was observed that the delay in ripening of bananas by the method of the present disclosure was 7 days as compared to the bananas which were not treated by the method of the present disclosure.

In the case of `CC(=O)NC(C(=O)O)C(C)(C)SN=O` (racemic) [SNAP, S-Nitroso-N-acetyl-dl-penicillamine], the “Number of fruits ripened” value is, setting by setting: (Day 0, SNP 1 mM) 0; (Day 1, SNP 1 mM) 0; (Day 2, SNP 1 mM) 2; (Day 3, SNP 1 mM) 4.

The record behind these values is patent US12310380B2, “Method for extending shelf-life of agricultural produce” (National Institute of Plant Genome Research, priority 2019, dated 2025).
